According to patent US9113629B2, “4-amino-6-(4-substituted-phenyl)-picolinates and 6-amino-2-(4-substituted-phenyl)-pyrimidine-4-carboxylates and their use as herbicides” (DOW AGROSCIENCES LLC, priority 2013, dated 2015):

Tested on: LOLSS: ryegrass including, Italian ryegrass (Lolium multiflorum), rigid ryegrass (Lolium rigidum), annual ryegrass (Lolium multiflorum subsp. Gaudini)
Assay: Post-emergent Test III, herbicidal activity in wheat and barley
Type: in vivo
Conditions: probit analysis, dose for growth reduction of 50 percent, 21 days after application
Procedure, shortened: (§1)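 Plants at the second to third true-leaf stage, grown in a greenhouse at about 18/17 °C with a 14 h photoperiod, were sprayed post-emergence at 187 L/ha with the high rate and ½× to 1/16× serial dilutions in an acetone/DMSO/crop-oil/surfactant carrier. Injury was rated visually at 21 d on a 0–100% scale, and GR20–GR90 were derived by probit analysis.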

| Structure (SMILES) | GR50 LOLSS [g ai/ha] |
| --- | --- |
| Nc1c(F)c(-c2ccc(Br)cc2)nc(C(=O)O)c1Cl [Compound 20] | 25 |

Same assay, conditions: probit analysis, dose for growth reduction of 80 percent, 21 days after application

| Structure (SMILES) | GR80 LOLSS [g ai/ha] |
| --- | --- |
| Nc1c(F)c(-c2ccc(Br)cc2)nc(C(=O)O)c1Cl [Compound 20] | >140 |

Tested on: APESV: bentgrass (Apera spica-venti)
Assay: as above
Type: in vivo
Conditions: Apera spica-venti, post-emergence, 504 h; 35 g ai/ha; read-out: Visual Growth Reduction (%) 21 Days After Application APESV
Procedure, shortened: as §1

| Structure (SMILES) | pest or weed control at 35 g/ha [%] |
| --- | --- |
| Nc1c(F)c(-c2ccc(Br)cc2)nc(C(=O)O)c1Cl [Compound 20] | 85 to 94 |

Same assay, conditions: Apera spica-venti, post-emergence, 504 h; 70 g ai/ha; read-out: Visual Growth Reduction (%) 21 Days After Application APESV

| Structure (SMILES) | pest or weed control at 70 g/ha [%] |
| --- | --- |
| Nc1c(F)c(-c2ccc(Br)cc2)nc(C(=O)O)c1Cl [Compound 20] | 85 to 94 |

Same assay, conditions: Apera spica-venti, post-emergence, 504 h; 140 g ai/ha; read-out: Visual Growth Reduction (%) 21 Days After Application APESV

| Structure (SMILES) | pest or weed control at 140 g/ha [%] |
| --- | --- |
| Nc1c(F)c(-c2ccc(Br)cc2)nc(C(=O)O)c1Cl [Compound 20] | 85 to 94 |

Same assay, conditions: probit analysis, dose for growth reduction of 50 percent, 21 days after application

| Structure (SMILES) | GR50 APESV [g ai/ha] |
| --- | --- |
| Nc1c(F)c(-c2ccc(Br)cc2)nc(C(=O)O)c1Cl [Compound 20] | 2 |

Same assay, conditions: probit analysis, dose for growth reduction of 80 percent, 21 days after application

| Structure (SMILES) | GR80 APESV [g ai/ha] |
| --- | --- |
| Nc1c(F)c(-c2ccc(Br)cc2)nc(C(=O)O)c1Cl [Compound 20] | 12 |

Tested on: MATSS: scented mayweed (Matricaria chamomilla), pineappleweed (Matricaria matricarioides)
Assay: as above
Type: in vivo
Conditions: Matricaria chamomilla, post-emergence, 504 h; 35 g ai/ha; read-out: Visual Growth Reduction (%) 21 Days After Application MATSS
Procedure, shortened: as §1

| Structure (SMILES) | pest or weed control at 35 g/ha [%] |
| --- | --- |
| Nc1c(F)c(-c2ccc(Br)cc2)nc(C(=O)O)c1Cl [Compound 20] | 95 to 100 |

Same assay, conditions: Matricaria chamomilla, post-emergence, 504 h; 70 g ai/ha; read-out: Visual Growth Reduction (%) 21 Days After Application MATSS

| Structure (SMILES) | pest or weed control at 70 g/ha [%] |
| --- | --- |
| Nc1c(F)c(-c2ccc(Br)cc2)nc(C(=O)O)c1Cl [Compound 20] | 95 to 100 |

Same assay, conditions: Matricaria chamomilla, post-emergence, 504 h; 140 g ai/ha; read-out: Visual Growth Reduction (%) 21 Days After Application MATSS

| Structure (SMILES) | pest or weed control at 140 g/ha [%] |
| --- | --- |
| Nc1c(F)c(-c2ccc(Br)cc2)nc(C(=O)O)c1Cl [Compound 20] | 95 to 100 |

Same assay, conditions: probit analysis, dose for growth reduction of 50 percent, 21 days after application

| Structure (SMILES) | GR50 MATSS [g ai/ha] |
| --- | --- |
| Nc1c(F)c(-c2ccc(Br)cc2)nc(C(=O)O)c1Cl [Compound 20] | 1 |

Same assay, conditions: probit analysis, dose for growth reduction of 80 percent, 21 days after application

| Structure (SMILES) | GR80 MATSS [g ai/ha] |
| --- | --- |
| Nc1c(F)c(-c2ccc(Br)cc2)nc(C(=O)O)c1Cl [Compound 20] | 1 |

Tested on: not listed separately
Assay: as above
Type: in vivo, Lolium multiflorum, Lolium rigidum
Conditions: Lolium multiflorum, post-emergence, 504 h; 35 g ai/ha; read-out: Visual Growth Reduction (%) 21 Days After Application LOLSS
Procedure, shortened: as §1

| Structure (SMILES) | pest or weed control at 35 g/ha [%] |
| --- | --- |
| Nc1c(F)c(-c2ccc(Br)cc2)nc(C(=O)O)c1Cl [Compound 20] | 45 to 59 |

Same assay, conditions: Lolium multiflorum, post-emergence, 504 h; 70 g ai/ha; read-out: Visual Growth Reduction (%) 21 Days After Application LOLSS

| Structure (SMILES) | pest or weed control at 70 g/ha [%] |
| --- | --- |
| Nc1c(F)c(-c2ccc(Br)cc2)nc(C(=O)O)c1Cl [Compound 20] | 60 to 74 |

Same assay, conditions: Lolium multiflorum, post-emergence, 504 h; 140 g ai/ha; read-out: Visual Growth Reduction (%) 21 Days After Application LOLSS

| Structure (SMILES) | pest or weed control at 140 g/ha [%] |
| --- | --- |
| Nc1c(F)c(-c2ccc(Br)cc2)nc(C(=O)O)c1Cl [Compound 20] | 60 to 74 |

Tested on: TRZSS: wheat, including spring and winter (Triticum aestivum)
Assay: as above
Type: in vivo
Conditions: Triticum aestivum, post-emergence, 504 h; 35 g ai/ha; read-out: Visual Growth Reduction (%) 21 Days After Application TRZSS
Procedure, shortened: as §1

| Structure (SMILES) | pest or weed control at 35 g/ha [%] |
| --- | --- |
| Nc1c(F)c(-c2ccc(Br)cc2)nc(C(=O)O)c1Cl [Compound 20] | 85 to 94 |

Same assay, conditions: Triticum aestivum, post-emergence, 504 h; 70 g ai/ha; read-out: Visual Growth Reduction (%) 21 Days After Application TRZSS

| Structure (SMILES) | pest or weed control at 70 g/ha [%] |
| --- | --- |
| Nc1c(F)c(-c2ccc(Br)cc2)nc(C(=O)O)c1Cl [Compound 20] | 85 to 94 |

Same assay, conditions: Triticum aestivum, post-emergence, 504 h; 140 g ai/ha; read-out: Visual Growth Reduction (%) 21 Days After Application TRZSS

| Structure (SMILES) | pest or weed control at 140 g/ha [%] |
| --- | --- |
| Nc1c(F)c(-c2ccc(Br)cc2)nc(C(=O)O)c1Cl [Compound 20] | 85 to 94 |

Same assay, conditions: probit analysis, dose for growth reduction of 20 percent, 21 days after application; crop

| Structure (SMILES) | GR20 TRZSS [g ai/ha] |
| --- | --- |
| Nc1c(F)c(-c2ccc(Br)cc2)nc(C(=O)O)c1Cl [Compound 20] | 1 |

Tested on: SETVI: green foxtail (Setaria viridis)
Assay: as above
Type: in vivo
Conditions: Setaria viridis, post-emergence, 504 h; 35 g ai/ha; read-out: Visual Growth Reduction (%) 21 Days After Application SETVI
Procedure, shortened: as §1

| Structure (SMILES) | pest or weed control at 35 g/ha [%] |
| --- | --- |
| Nc1c(F)c(-c2ccc(Br)cc2)nc(C(=O)O)c1Cl [Compound 20] | 95 to 100 |

Same assay, conditions: Setaria viridis, post-emergence, 504 h; 70 g ai/ha; read-out: Visual Growth Reduction (%) 21 Days After Application SETVI

| Structure (SMILES) | pest or weed control at 70 g/ha [%] |
| --- | --- |
| Nc1c(F)c(-c2ccc(Br)cc2)nc(C(=O)O)c1Cl [Compound 20] | 95 to 100 |

Same assay, conditions: Setaria viridis, post-emergence, 504 h; 140 g ai/ha; read-out: Visual Growth Reduction (%) 21 Days After Application SETVI

| Structure (SMILES) | pest or weed control at 140 g/ha [%] |
| --- | --- |
| Nc1c(F)c(-c2ccc(Br)cc2)nc(C(=O)O)c1Cl [Compound 20] | 95 to 100 |

Same assay, conditions: probit analysis, dose for growth reduction of 50 percent, 21 days after application

| Structure (SMILES) | GR50 SETVI [g ai/ha] |
| --- | --- |
| Nc1c(F)c(-c2ccc(Br)cc2)nc(C(=O)O)c1Cl [Compound 20] | 4 |

Same assay, conditions: probit analysis, dose for growth reduction of 80 percent, 21 days after application

| Structure (SMILES) | GR80 SETVI [g ai/ha] |
| --- | --- |
| Nc1c(F)c(-c2ccc(Br)cc2)nc(C(=O)O)c1Cl [Compound 20] | 10 |

Tested on: KCHSC: kochia (Kochia scoparia)
Assay: as above
Type: in vivo
Conditions: Bassia scoparia, post-emergence, 504 h; 35 g ai/ha; read-out: Visual Growth Reduction (%) 21 Days After Application KCHSC
Procedure, shortened: as §1

| Structure (SMILES) | pest or weed control at 35 g/ha [%] |
| --- | --- |
| Nc1c(F)c(-c2ccc(Br)cc2)nc(C(=O)O)c1Cl [Compound 20] | 95 to 100 |

Same assay, conditions: Bassia scoparia, post-emergence, 504 h; 70 g ai/ha; read-out: Visual Growth Reduction (%) 21 Days After Application KCHSC

| Structure (SMILES) | pest or weed control at 70 g/ha [%] |
| --- | --- |
| Nc1c(F)c(-c2ccc(Br)cc2)nc(C(=O)O)c1Cl [Compound 20] | 95 to 100 |

Same assay, conditions: Bassia scoparia, post-emergence, 504 h; 140 g ai/ha; read-out: Visual Growth Reduction (%) 21 Days After Application KCHSC

| Structure (SMILES) | pest or weed control at 140 g/ha [%] |
| --- | --- |
| Nc1c(F)c(-c2ccc(Br)cc2)nc(C(=O)O)c1Cl [Compound 20] | 95 to 100 |

Same assay, conditions: probit analysis, dose for growth reduction of 50 percent, 21 days after application

| Structure (SMILES) | GR50 KCHSC [g ai/ha] |
| --- | --- |
| Nc1c(F)c(-c2ccc(Br)cc2)nc(C(=O)O)c1Cl [Compound 20] | 2 |

Same assay, conditions: probit analysis, dose for growth reduction of 80 percent, 21 days after application

| Structure (SMILES) | GR80 KCHSC [g ai/ha] |
| --- | --- |
| Nc1c(F)c(-c2ccc(Br)cc2)nc(C(=O)O)c1Cl [Compound 20] | 5 |

Tested on: HORSS: barley, including spring and winter (Hordeum vulgare)
Assay: as above
Type: in vivo
Conditions: Hordeum vulgare, post-emergence, 504 h; 35 g ai/ha; read-out: Visual Growth Reduction (%) 21 Days After Application HORSS
Procedure, shortened: as §1

| Structure (SMILES) | pest or weed control at 35 g/ha [%] |
| --- | --- |
| Nc1c(F)c(-c2ccc(Br)cc2)nc(C(=O)O)c1Cl [Compound 20] | 85 to 94 |

Same assay, conditions: Hordeum vulgare, post-emergence, 504 h; 70 g ai/ha; read-out: Visual Growth Reduction (%) 21 Days After Application HORSS

| Structure (SMILES) | pest or weed control at 70 g/ha [%] |
| --- | --- |
| Nc1c(F)c(-c2ccc(Br)cc2)nc(C(=O)O)c1Cl [Compound 20] | 95 to 100 |

Same assay, conditions: Hordeum vulgare, post-emergence, 504 h; 140 g ai/ha; read-out: Visual Growth Reduction (%) 21 Days After Application HORSS

| Structure (SMILES) | pest or weed control at 140 g/ha [%] |
| --- | --- |
| Nc1c(F)c(-c2ccc(Br)cc2)nc(C(=O)O)c1Cl [Compound 20] | 95 to 100 |

Same assay, conditions: probit analysis, dose for growth reduction of 20 percent, 21 days after application; crop

| Structure (SMILES) | GR20 HORSS [g ai/ha] |
| --- | --- |
| Nc1c(F)c(-c2ccc(Br)cc2)nc(C(=O)O)c1Cl [Compound 20] | 1 |
